Laboratory results taken from PubChem BioAssay (NCI).
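96-well plates; 48 h exposure; 5 concentrations. Endpoints by linear interpolation between flanking doses. Not reached: highest tested concentration assigned. TGI denotes the concentration required for complete inhibition of growth.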

What was measured:
Test in all cases: NCI tumour cell line growth inhibition, 48 h
[1] = test system: BT-549 breast
[2] = test system: MDA-MB-231 breast
[3] = test system: MDA-MB-435
[4] = test system: SNB-78 CNS
[5] = test system: P388 leukemia
[6] = test system: MALME-3M melanoma
[7] = test system: DMS 273 small cell lung
[8] = test system: DLD-1 colon
[9] = test system: DMS 114 small cell lung

| Compound | TGI [1] [µM] | TGI [2] [µM] | TGI [3] [µM] | TGI [4] [µM] | TGI [5] [µM] | TGI [6] [µM] | TGI [7] [µM] | TGI [8] [µM] | TGI [9] [µM] |
| --- | --- | --- | --- | --- | --- | --- | --- | --- | --- |
| CCOC(=O)C1=NN(c2ccccc2)C2=CC(C)=NN(C)C(=S)N21 | > 100 | > 100 | > 100 | – | – | – | – | – | – |
| CC[C@](C)(O)C(=O)O[C@H]1C(=O)O[C@@H]2C[C@H]3C(C)=C[C@H](O)[C@@H](O)[C@]3(C)[C@H]3[C@@]4(O)OC[C@]32[C@@H]1[C@@H](C)[C@H]4O | – | – | – | 138 | 128 | 34.1 | 127 | 63.6 | 17.6 |
